The target of experiment [1] is T1, p65 (RelA) (Homo sapiens, UniProt Q04206).
T1 construct: FLAG-tagged human p65 expressed in 293 cells
In words: EMSA of extracts from CM101-treated transfected […] cells; C38S mutant less inhibited; western blot of covalently modified high molecular weight forms. It is filed as cell-based. On the technique in general: Immunoblotting shows a protein as a band on a membrane.

For experiment [2], the target named is T2, REL (human c-Rel) (Homo sapiens, UniProt Q04864).
T2 construct: FLAG-tagged human REL expressed in 293 cells
T2 sequence (Q04864 2-619): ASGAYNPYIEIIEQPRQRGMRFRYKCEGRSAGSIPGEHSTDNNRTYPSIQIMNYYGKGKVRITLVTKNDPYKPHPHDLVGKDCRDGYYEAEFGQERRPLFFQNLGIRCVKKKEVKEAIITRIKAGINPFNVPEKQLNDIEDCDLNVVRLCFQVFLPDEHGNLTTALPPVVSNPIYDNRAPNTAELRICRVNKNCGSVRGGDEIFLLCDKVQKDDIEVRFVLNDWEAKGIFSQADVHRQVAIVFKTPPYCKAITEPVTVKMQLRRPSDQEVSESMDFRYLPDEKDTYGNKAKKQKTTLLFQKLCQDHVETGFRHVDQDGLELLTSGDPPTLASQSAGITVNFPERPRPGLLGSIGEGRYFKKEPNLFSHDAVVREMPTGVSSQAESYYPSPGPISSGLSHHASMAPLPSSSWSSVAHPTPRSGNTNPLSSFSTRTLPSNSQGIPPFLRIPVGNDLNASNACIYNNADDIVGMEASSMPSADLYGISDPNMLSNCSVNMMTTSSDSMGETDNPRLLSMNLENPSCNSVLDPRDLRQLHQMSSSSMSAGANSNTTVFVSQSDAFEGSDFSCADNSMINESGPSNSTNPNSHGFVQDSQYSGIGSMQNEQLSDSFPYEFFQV
In words: EMSA of extracts from CM101-treated transfected […] cells; C27S mutant less inhibited; western blot of covalently modified high molecular weight forms. Format: cell-based.

For orientation: IC50 means the concentration that inhibits the measured activity by half. Higher therefore signals weaker potency.

T1 sequence (Q04206 whole entry): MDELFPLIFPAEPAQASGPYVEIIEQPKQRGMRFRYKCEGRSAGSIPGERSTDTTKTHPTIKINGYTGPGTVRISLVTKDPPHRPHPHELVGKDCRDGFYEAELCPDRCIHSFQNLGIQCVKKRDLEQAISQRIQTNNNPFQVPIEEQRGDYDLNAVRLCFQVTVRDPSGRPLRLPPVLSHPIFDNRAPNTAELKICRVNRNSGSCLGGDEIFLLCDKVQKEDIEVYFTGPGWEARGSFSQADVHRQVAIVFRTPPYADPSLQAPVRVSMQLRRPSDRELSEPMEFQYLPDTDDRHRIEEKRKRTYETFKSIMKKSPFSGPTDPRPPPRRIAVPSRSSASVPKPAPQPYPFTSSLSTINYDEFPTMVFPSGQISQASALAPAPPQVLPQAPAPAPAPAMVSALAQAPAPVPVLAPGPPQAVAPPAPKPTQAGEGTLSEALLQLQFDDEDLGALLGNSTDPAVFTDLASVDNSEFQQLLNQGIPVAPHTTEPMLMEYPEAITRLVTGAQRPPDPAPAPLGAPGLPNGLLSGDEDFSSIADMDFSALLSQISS

Regarding `CCOC(=O)C1=NO[C@@]2(C=C(Br)C(=O)[C@H]3O[C@H]32)C1` (mixture of isomers) [CM101], the IC50 in experiment [1] and in experiment [2] was approximately 10 µM each time.

For the origin of these results see PMC4863944, “Inhibition of Oncogenic Transcription Factor REL by the Natural Product Derivative Calafianin Monomer 101 Induces Proliferation Arrest and Apoptosis in Human B-Lymphoma Cell Lines” (Molecules, 2015).
